The test system of one assay is MiaPaca2 cells. Kind of assay: MiaPaca2 cell viability, combination with chemotherapy. Format: cell-based. As to conditions: for IC50: Homo sapiens, MIA PaCa-2, MiaPaca2 cells, read-out: IC50 5-FU; for calculated mean synergy score: MiaPaca2 cells. An excerpt: The cell viability assays and Bliss synergy analyses are as described above in Examples 1-9 and 11-12.
For a further assay, the target named is T1, cat-CHD1L (Homo sapiens, UniProt Q86WJ1).
T1 construct: made in house; host or cells: Rosetta 2 (DE3) pLysS cells (E. coli)
T1 sequence (Q86WJ1 16-619): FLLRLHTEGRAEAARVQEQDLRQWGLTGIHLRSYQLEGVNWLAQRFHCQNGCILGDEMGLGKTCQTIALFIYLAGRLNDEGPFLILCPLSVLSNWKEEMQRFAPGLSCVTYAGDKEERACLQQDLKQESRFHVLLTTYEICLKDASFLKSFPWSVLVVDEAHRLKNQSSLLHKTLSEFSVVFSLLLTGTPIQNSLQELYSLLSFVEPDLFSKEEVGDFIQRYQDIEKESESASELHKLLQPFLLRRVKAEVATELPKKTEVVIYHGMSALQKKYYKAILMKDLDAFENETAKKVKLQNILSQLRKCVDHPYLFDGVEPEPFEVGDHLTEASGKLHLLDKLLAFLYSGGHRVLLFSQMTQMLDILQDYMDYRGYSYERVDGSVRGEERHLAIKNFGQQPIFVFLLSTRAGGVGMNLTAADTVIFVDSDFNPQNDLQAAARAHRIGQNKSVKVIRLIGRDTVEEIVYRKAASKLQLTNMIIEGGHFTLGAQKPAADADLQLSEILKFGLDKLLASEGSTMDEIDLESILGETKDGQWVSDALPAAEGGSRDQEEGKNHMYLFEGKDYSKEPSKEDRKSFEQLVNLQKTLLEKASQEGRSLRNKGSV
Description: CHD1L ATPase assay measured by ADP-Glo. Format: biochemical. In general terms: In ADP-Glo the light output rises with the ADP produced.

The target in the next assay is PARP2 (Homo sapiens, UniProt Q9UGN5). Description: PARP2 enzymatic (colorimetric) assay. Format: biochemical. The method, then:
. First, a 96 well plate was coated with histones. Next, the biotinylated NAD^+ substrate was incubated with an activated DNA template, the inhibitor to test and the PARP1/2 enzyme for 1 h at RT. After that, the sample plate was treated with streptavidin-RP for 30 min at RT, followed by addition of the horseradish peroxidase (HRP) substrate until the colorimetric signal was developed. The EnVision plate reader (PerkinElmer) was used to measure the absorbance at 450 nm and the results were plotted and analyzed using GraphPad Prism.

For the next assay, the system named is HCC1937 tumor organoids. Kind of assay: Tumor organoid cytotoxicity, HCC1937. Format: cell-based. As to conditions: Homo sapiens; HCC1937 (BRCA1 mutant HR-deficient); read-out: IC50, tumor organoid viability, single agent. The method, then:
Tumor organoid culture—Cell lines were cultured as tumor organoids by seeding 2,000 to 5,000 cells/well into uncoated 96 well U-bottom Ultra Low Attachment Microplates (Corning) using their corresponding medium. Cell aggregation was then promoted by centrifugation of the plates for 15 min at 1,000 rpm followed by the addition of Matrigel (Corning) to a 2-5% final concentration. Tumor organoids were maintained under standard cell culture conditions for 72 h prior to drug treatment.
Organoids were then transferred to a white solid bottom 96 well plate and incubated with an equal volume of CellTiter Glo 3D reagent (Promega) for 45 min on a shaker at 400 rpm. Luminescence was recorded using the EnVision plate reader (PerkinElmer) and values normalized to the controls using GraphPad Prism.

Another assay concerns PAR in SUM149PT cells. Kind of assay: PAR immunofluorescence (nuclear / cytoplasmic PAR). Format: cell-based. As to conditions: for nuclear PAR (PARylation) / cytoplasmic PAR: SUM149PT cells, single agent; for nuclear PAR (PARylation): 4 h. The source says:
Inhibition of CHD1L promotes PAR translocation to the cytoplasm. The main role of PARP1 during the DDR is to detect and signal the recruitment of repair machinery to the sites of DNA damage. For that, PARP1/2 catalyze PARylation, which is a pivotal […] protein modification, consisting of the addition of ADP-ribose units to the carboxyl group of acidic residues such as glutamate or aspartate on target proteins by using NAD^+ as substrate. CHD1L is one of the proteins that requires binding to these PAR chains for its activation and subsequent chromatin remodeling. Using immunofluorescence of PAR, the effect of PARPi and CHD1Li on PARylation in SUM149PT cells was investigated. […] In addition, the effect of doxorubicin on nuclear PARylation was reverted by CHD1L inhibition, causing an increase of PAR in the cytoplasm (FIG. 25A-C).

The subject of the next assay is AIF in SUM149PT cells. Kind of assay: AIF immunofluorescence in SUM149PT (SUM149) cells. As to conditions: for cytoplasmic AIF / nuclear AIF: SUM149PT cells, single agent, 18 h. Format: cell-based. An excerpt:
CHD1Li-mediated PAR translocation to the cytoplasm activates PARthanatos as a cell death mechanism. Parthanatos is a form a programmed cell death different from apoptosis and known to be mediated by PARP1 overactivation. The unique events occurring during parthanatos are: PARP1 rapid activation, accumulation of PAR and nuclear translocation of apoptosis inducing factor (AIF). Without being bound by any particular theory, accumulation of PAR in the cytoplasm caused by CHD1Li can also mediate parthanatos. To better understand the link between PAR translocation to the cytoplasm and cell death, immunofluorescence to measure the activation of caspase-3 and the subcellular localization of AIF after treatment with SOC drugs and Compound 6 in SUM49PT cells was used. […] Without being bound by any particular theory, this might be caused by the mitochondrial outer membrane permeabilization, which triggers release of mitochondrial proteins like AIF or cytochrome c, activating caspase-3 by its cleavage and leading to apoptosis. […] Moreover, when combining CHD1L inhibition with SOC drugs, the cell death mechanism shifts from apoptosis to parthanatos, evidenced by a significant increase in AIF nuclear translocation and decrease in activation of caspase-3 (FIG. 25D-E).
The ability of Compounds 12, 15 and 16 to localize AIF was tested in SUM149 (breast cancer) and MDA-MB-231 (TNBC) cell lines. A comparison of the relative distribution of AIF in nuclei (a) versus cytoplasm (b) in SUM149 cells and nuclei (c) versus cytoplasm (d) in MDA-MB-231 cells in the presence of 4 μM Compounds 12, 15 and 16 are shown in FIG. 28. […] Similarly, AIF concentration in the cytoplasm of MDA-MB-231 cells decreased by about 0.5 after administration with Compound 15. After treatment with Compound 16, the relative concentration of AIF in the nuclei of SUM149 cells increased by about 0.5-fold, and the concentration of AIF in the cytoplasm decreased by about 0.4-fold. In MDA-MB-231 cells, the relative concentration of AIF in the cytoplasm decreased by about 0.5-fold, while the concentration of AIF increased in the nuclei by about 0.1-fold.

The text below walks through data of US20260240844A1, “INHIBITORS OF CHD1L AND USES THEREOF” (The Regents of the University of Colorado, a body corporate, priority 2023, published 2026).

Entries after “also recorded” stand apart in the source; their conditions may differ. Like-named read-outs stand apart in the source and are kept apart here.

PARP2, sequence (Q9UGN5 whole entry): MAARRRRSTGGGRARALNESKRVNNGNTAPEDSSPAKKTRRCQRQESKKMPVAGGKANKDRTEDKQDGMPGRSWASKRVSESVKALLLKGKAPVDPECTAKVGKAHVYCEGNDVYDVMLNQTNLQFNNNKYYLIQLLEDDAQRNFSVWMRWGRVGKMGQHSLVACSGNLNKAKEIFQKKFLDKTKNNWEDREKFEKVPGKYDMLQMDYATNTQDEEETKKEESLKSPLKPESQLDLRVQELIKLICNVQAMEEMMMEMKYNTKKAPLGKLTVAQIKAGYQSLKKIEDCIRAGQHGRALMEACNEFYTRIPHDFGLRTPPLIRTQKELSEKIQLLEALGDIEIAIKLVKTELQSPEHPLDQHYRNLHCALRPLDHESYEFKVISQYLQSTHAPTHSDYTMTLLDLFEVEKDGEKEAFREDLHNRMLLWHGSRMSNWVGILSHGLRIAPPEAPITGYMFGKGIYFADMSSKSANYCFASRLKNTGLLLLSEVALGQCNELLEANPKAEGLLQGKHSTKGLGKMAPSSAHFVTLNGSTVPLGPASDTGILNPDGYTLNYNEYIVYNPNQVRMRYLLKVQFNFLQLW
Description for cat-CHD1L: No enzyme control was used to measure the background. […] The reaction was incubated at 37° C. for 1 h. The assay plate was brought to RT before 5 μL of ADP-glo™ Reagent (Promega, Cat. No. V9102) was added to remove unreacted ATP. The ATP depletion step was carried out at RT for 40 min before 10 μL of Kinase Detection Reagent was added and incubated for 30-60 min to convert the ADP produced from the enzyme assay back to ATP for luciferase rection to convert to light for detection. An EnVision plate reader (PerkinElmer) was used to detect luminescence from the ADP-glo assay and the enzyme activity was determined after background subtraction and normalization to enzyme only control.

For orientation: IC50 means the concentration that inhibits the measured activity by half. In the case of `O=c1[nH]cc(F)c(=O)[nH]1` [Compound 5-FU, 5-fluorouracil], the IC50 in the assay on MiaPaca2 cells (Compound 6.11 0 μM) worked out at 238 µM; in the assay on MiaPaca2 cells (Compound 6.11 4 μM) it was 74.4 µM; in the assay with MiaPaca2 cells (Compound 6.11 4.25 μM), 68.7 µM; in the assay with MiaPaca2 cells (Compound 6.11 4.5 μM) it was 38.3 µM; in the assay with MiaPaca2 cells (Compound 7 0 μM) it was 68.2 µM; with MiaPaca2 cells (Compound 7 7 μM), 61.8 µM. Moreover, the half-inhibitory concentration (IC50) stood at 56.7 µM in the assay with MiaPaca2 cells (Compound 7 8 μM); 46.7 µM with MiaPaca2 cells (Compound 7 9 μM); 55.6 µM with MiaPaca2 cells (Compound 8 0 μM); 66.2 µM with MiaPaca2 cells (Compound 8 2 μM); 60.4 µM with MiaPaca2 cells (Compound 8 2.25 μM); 53.8 µM in the assay with MiaPaca2 cells (Compound 8 2.5 μM). For the same compound, the IC50 in the assay with MiaPaca2 cells (Compound 12 0 μM) worked out at 69.7 µM; in the assay on MiaPaca2 cells (Compound 12 3.75 μM) it was 32 µM; in the assay with MiaPaca2 cells (Compound 12 4 μM), 16.3 µM; in the assay with MiaPaca2 cells (Compound 12 4.25 μM), 15.9 µM; with MiaPaca2 cells (Compound 13 0 μM), 57.2 µM; with MiaPaca2 cells (Compound 13 5 μM) it was 60.9 µM. In addition, the figures for the half-inhibitory concentration (IC50) with MiaPaca2 cells (Compound 13 6 μM) and in the assay with MiaPaca2 cells (Compound 13 […]) were 58.5 µM and 50.7 µM, respectively.
`Cc1cc(Nc2ccc(NC(=O)Cc3cccs3)cc2)nc(N2CCCC2)n1` [Compound 6, N-(4-((6-methyl-2-(pyrrolidin-1-yl)pyrimidin-4-yl)amino)phenyl)-2-(thiophen-2-yl)acetamide]: the “inhibition of CHD1L ATPase activity” value at cat-CHD1L is “potently inhibited”. Further, at PARP2, the PARP2 enzyme activity result is listed as “does not have any effect on PARP1/2 activity”. Also, in the assay with HCC1937 tumor organoids, the half-inhibitory concentration (IC50) came to 2.8 µM. Further, the “nuclear PAR (PARylation)” value in the assay on PAR in SUM149PT cells is on record as “caused the same effects as PARPi”. In the assay with AIF in SUM149PT cells, the “cytoplasmic AIF” value is “decrease in cytoplasmic AIF” and the “nuclear AIF” value was “significantly increasing AIF in the nucleus”.
In the case of `Cc1cc(Nc2ccc(NC(=O)Cc3cc(Br)cs3)cc2)nc(N2CCCC2)n1` [Compound 6.11, 2-(4-bromothiophen-2-yl)-N-(4-((6-methyl-2-(pyrrolidin-1-yl)pyrimidin-4-yl)amino)phenyl)acetamide], in the assay with HCC1937 tumor organoids, the IC50 was approximately 2.8 µM. For the same compound, in the assay on MiaPaca2 cells (combined with 5-FU), the “calculated mean synergy score” value is listed as “about 42”. For the same compound, in the assay on MiaPaca2 cells (combined with SN-38), the “calculated mean synergy score” value is “about 29”. Further, in the assay with PAR in SUM149PT cells (Compound 6.11 combined with doxorubicin), the PAR localization result was “shifted PAR to the cytoplasm”. In the assay on PAR in SUM149PT cells, the “cytoplasmic PAR” value is “increased cytoplasmic PAR”. The “AIF nuclear translocation in combination” value in the assay with AIF in SUM149PT cells (Compound 6.11 combined with doxorubicin or irinotecan/SN-38) is on record as “resulted in AIF nuclear translocation”. Moreover, in the assay on AIF in SUM149PT cells, the “cytoplasmic AIF” value is on record as “did not affect cytoplasmic AIF” and the “nuclear AIF” value was “increased nuclear AIF”.
`COc1cccc2c1C(=O)c1c(O)c3c(c(O)c1C2=O)C[C@@](O)(C(=O)CO)C[C@@H]3O[C@H]1C[C@H](N)[C@H](O)[C@H](C)O1` [doxorubicin]: on cat-CHD1L, the “inhibition of CHD1L ATPase activity” value is “do not trap CHD1L or inhibit CHD1L ATPase activity”. Moreover, in the assay on PAR in SUM149PT cells, the “cytoplasmic PAR” value is “no effect on cytoplasmic PAR” and the “nuclear PAR (PARylation)” value was “increased PARylation in the nucleus”. In addition, in the assay on PAR in SUM149PT cells (listed as Doxorubicin), the “nuclear PAR (PARylation)” value is “increased nuclear PAR” and the “cytoplasmic PAR” value is “did not elevate cytoplasmic PAR”. Besides, the “nuclear AIF” value with AIF in SUM149PT cells is “some increase of AIF in the nucleus”.
As for `O=C(c1cc(Cc2n[nH]c(=O)c3ccccc23)ccc1F)N1CCN(C(=O)C2CC2)CC1` [olaparib], the “inhibition of CHD1L ATPase activity” value on cat-CHD1L is “do not trap CHD1L or inhibit CHD1L ATPase activity”. In addition, at PARP2, the PARP2 enzyme activity entry was “inhibits both PARP1 and PARP2”. Further, in the assay on PAR in SUM149PT cells, the “cytoplasmic PAR” value was “increased cytoplasmic PAR; also recorded: increase in cytoplasmic PAR” and the “nuclear PAR (PARylation)” value is “inhibition of nuclear PARylation”. Moreover, in the assay on AIF in SUM149PT cells, the “cytoplasmic AIF” value is reported as “increased cytoplasmic AIF; also recorded: increase in the AIF intensity in the cytoplasm” and the “nuclear AIF” value is on record as “did not enhance nuclear AIF; also recorded: no translocation of this protein to the nucleus”.
